Key:
[1] = test system: position 33 of hSOD; assay: LC-MS/MS of tryptic peptide VY*GSIK of mutant hSOD: identity of the amino acid incorporated; design: species or system Saccharomyces cerevisiae; details: from the signal-to-noise ratio of the peptide spectra; hSOD position 33
Protocol: The identity of the amino acid incorporated was determined by subjecting a tryptic digest of the mutant protein to liquid chromatography and tandem mass spectrometry. For example, for mass spectrometry protein bands were visualized by colloidal Coomassie stain. Gel bands corresponding to wild-type and mutant SOD were excised from polyacrylamide gels, sliced into 1.5-mm cubes, reduced and alkylated, then subjected to trypsin hydrolysis essentially as described. See, e.g., A. Shevchenko, et al., (1996), Analytical Chemistry 68, 850-858. Tryptic peptides containing the unnatural amino acid were analyzed by nanoflow reversed-phase HPLC/μESI/MS with an LCQ ion trap mass spectrometer. Liquid chromatography tandem mass spectrometry (LC-MS/MS) analysis was performed on a Finnigan LCQ Deca ion trap mass spectrometer (Thermo Finnigan) fitted with a Nanospray HPLC (Agilent 1100 series). See, e.g., FIG. 10, Panels A-H. […]
For example, the wild-type and mutant hSOD were purified using nickel affinity column and protein bands were visualized by colloidal Coomassie stain. […] Tryptic peptides containing the unnatural amino acid were analyzed by nanoflow reversed-phase HPLC/μESI/MS with an LCQ ion trap mass spectrometer. […]

[2] = test system: GAL4 responsive HIS3, URA3 and lacZ reporters in MaV203; assay: Growth of selection strain MaV203:pGADGAL4(2TAG) harboring synthetase plasmids on selective media (-ura, -his + 3-AT, 5-FOA, X-GAL); format: cell-based, Saccharomyces cerevisiae; details: MaV203 containing pGADGAL4(T44TAG, R110TAG)
Protocol: S. cerevisiae strain MaV203, (Invitrogen) is MATα; leu2-3,112; trp1 109;his3 Δ200;ade2-101;cyh2^R;cyh1^R;GAL4 Δ; gal80 Δ; GAL1::lacZ; HIS3UASGAL1::HIS3@LYS2; SPAL10UASGAL1::URA3. Yeast media were purchased from Clontech, 5-FOA and X-GAL were from Invitrogen and 3-AT was from BIO 101. YPER (Yeast Protein Extraction Reagent) and ONPG were purchased from Pierce Chemicals. Plasmid transformations were performed by the PEG/Lithium actetate method (see, e.g., D. Burke, et al., (2000) Methods in Yeast Genetics. Cold Spring Harbor Laboratory Press, Cold Spring Harbor, N.Y.) and transformants selected on the appropriate synthetic complete dropout media. To test the phenotypes conferred by various plasmid combinations on MaV203 yeast colonies from synthetic complete dropout plates of each transformation were resuspended in 15 μL of sterile water and streaked on the selective media of interest. […] The OD660 of 100 μL of cells, and several dilutions of cells were recorded in parallel in a 96 well microtiter plate. […] Upon color development, cells were pelleted by centrifugation, the supernatant transferred to a clean 96 well microtiter plate (Nunclon, cat.# 167008), and the A420 recorded. […] ONPG hydrolysis was calculated using the equation: beta-galactosidase units=[…]. […] Spectrophotometric readings were performed on a SPECTRAmax190 plate reader. […]

Row | Molecule | incorporation purity [1] [%] | growth phenotype on 3-AT plates [2]
1 | CC(=O)c1ccc(C[C@H](N)C(=O)O)cc1 [p-acetyl-L-phenylalanine] | ≥ 99.8 | –
2 | EcTyrRS: Escherichia coli tyrosyl-tRNA synthetase, expressed with tRNACUA in yeast (protein, UniProt P0AGJ9 2-424, looked up) Tyrosine--tRNA ligase: ASSNLIKQLQERGLVAQVTDEEALAERLAQGPIALYCGFDPTADSLHLGHLVPLLCLKRFQQAGHKPVALVGGATGLIGDPSFKAAERKLNTEETVQEWVDKIRKQVAPFLDFDCGENSAIAANNYDWFGNMNVLTFLRDIGKHFSVNQMINKEAVKQRLNREDQGISFTEFSYNLLQGYDFACLNKQYGVVLQIGGSDQWGNITSGIDLTRRLHQNQVFGLTVPLITKADGTKFGKTEGGAVWLDPKKTSPYKFYQFWINTADADVYRFLKFFTFMSIEEINALEEEDKNSGKAPRAQYVLAEQVTRLVHGEEGLQAAKRITECLFSGSLSALSEADFEQLAQDGVPMVEMEKGADLMQALVDSELQPSRGQARKTIASNAITINGEKQSDPEYFFKEEDRLFGRFTLLRRGKKNYCLICWK | – | grew robustly on plates with 3-AT concentrations up to 75 mM
